Laboratory results as given in US20150216903A1, “COMPOUNDS FOR IMPROVED VIRAL TRANSDUCTION” (BLUEBIRD BIO, INC., priority 2012, published 2015).

System: CD34+ cells
Test: 7-Day liquid culture, FACS analysis after transduction with GFP+ lentivirus
Type: cell-based, human
Method: One vial of CD34+ cells (AllCells) were thawed by incubating at 37° C. for 1-2 minutes and contents were transferred to 10 mL Stem Cell Growth Media (hereafter referred to as SCGM) in a 15-mL conical tube. Cells were spun for 5 minutes at 1500 RPM in a standard tabletop centrifuge, resuspended in 10 mL SCGM and counted on a hemacytometer. A volume correlating with an appropriate number of cells was transferred to a fresh 15-mL conical tube, and again spun for 5 minutes at 1500 RPM. Cells were resuspended to the desired cell concentration in SCGM+1× cytokines (100 ng/mL SCF, 100 ng/mL TPO, 100 ng/mL FltL, and 30 ng/mL IL-3), and plated on a sterile non-adherent surface at 37° C. in a standard humidified tissue culture incubator (5% CO2).
Pre-stimulated cells (Example 1) were counted after 18-24 hours of culture. The cells were collected and spun for 5 minutes at 1500 RPM. 1.2×10^6 pre-stimulated CD34^+ cells were resuspended in 60 uL 10× cytokines (1000 ng/mL SCF, 1000 ng/mL TPO, 1000 ng/mL FltL, and 300 ng/mL IL-3), 7.8 uL protamine sulfate, 111 uL viral supernatant, and 361.2 uL SCGM. 90 uL cell/virus suspension (about 200,000 cells) was added to each well of a standard non-adherent 96-well plate. dmPGE2 was added during this viral transduction step at a final concentration of 100 uM, 50 uM, 25 uM, 12.5 uM, 1 uM, or 0 uM.
Cells were incubated at 37° C. in a standard humidified tissue culture incubator (5% CO2).
Aliquots of 10 mM dmPGE2 in DMSO were prepared from 1 mg previously processed dmPGE2 (Cayman Chemicals). Briefly, air was pipetted into the vial of dmPGE2 until methyl acetate was evaporated. 263 uL DMSO was added to the PGE2 remaining in the vial, and aliquots of 25 uL were added to 1.5 mL Eppendorf tubes and stored at −80° C. 10× working stock solutions were prepared by serial dilution of dmPGE2 in SCGM, and were then added to cells at appropriate working concentrations, according to Table 2. Cells were then incubated at 37° C. in a standard humidified tissue culture incubator (5% CO2).
After 24 hours of culture with virus and dmPGE2, cells were washed prior to subsequent functional validation assays. Washing was performed by transferring cells to a 96-well U-bottom plate and spinning for 5 minutes at 1500 RPM in a standard tabletop centrifuge. Media was aspirated and cells were resuspended in 200 uL SCGM. Cells were spun again for 5 minutes at 1500 RPM and media was aspirated. Cells were again resuspended in 200 uL SCGM then spun for 5 minutes at 1500 RPM, and again the media was aspirated. Particular functional validation assays are described below.
Washed cells were resuspended in 200 uL SCGM+lx cytokines (as described in Example 1) and transferred to a standard 12-well non-adherent tissue culture plate containing an additional 800 uL SCGM+lx cytokines Cells were maintained for an additional 6 days in a standard humidified tissue culture incubator (5% CO2) and then subjected Vector Copy Number analysis (Example 5) and FACS analysis. For FACS analysis, cells were assayed for the presence of a virally-encoded transgene, green fluorescent protein (GFP). The frequency of the virally-labeled cells within the pool of cultured cells was quantified as the frequency of GFP+ cells within the population. The mean fluorescence intensity of labeled cells was quantified.
Tables 3A-C indicate the dose-response of dmPGE2 in promoting viral transduction of CD34+ cells for three separate experiments. CD34+ cells were thawed and pre-stimulated with SCF, TPO, FltL, and IL3, then transduced (A) with GFP+ lentivirus at a multiplicity of infection of 25, (B) with GFP+ lentivirus at a multiplicity of infection of 5, or (C) transduced with an ALD (ABCD1)-expressing lentivirus at a multiplicity of infection of 25. Cells were exposed to dmPGE2 during the viral transduction step (24-48 hours of culture). Cells were then washed and analyzed by flow cytometry and PCR after approximately 1 week in culture. […]

CCCCC(C)(C)[C@H](O)/C=C/[C@H]1[C@H](O)CC(=O)[C@@H]1C/C=C\CCCC(=O)O [dmPGE2, 16,16-dimethyl PGE2]
% Positive (GFP) (dmPGE2 12.5 uM during transduction (24-48 hours of culture), GFP lentivirus MOI 5): 17.84%
% Positive (GFP) (dmPGE2 12.5 uM during transduction (24-48 hours of culture), GFP lentivirus MOI 25): 54.71%
MFI (dmPGE2 12.5 uM during transduction, GFP lentivirus MOI 5): 530,218.50
MFI (dmPGE2 12.5 uM during transduction, GFP lentivirus MOI 25): 759,442.75
% Positive (GFP) (dmPGE2 25 uM during transduction (24-48 hours of culture), GFP lentivirus MOI 5): 18.69%
% Positive (GFP) (dmPGE2 25 uM during transduction (24-48 hours of culture), GFP lentivirus MOI 25): 59.99%
MFI (dmPGE2 25 uM during transduction, GFP lentivirus MOI 5): 562,428.00
MFI (dmPGE2 25 uM during transduction, GFP lentivirus MOI 25): 845,691.00
% Positive (GFP) (dmPGE2 50 uM during transduction (24-48 hours of culture), GFP lentivirus MOI 5): 36.80%
% Positive (GFP) (dmPGE2 50 uM during transduction (24-48 hours of culture), GFP lentivirus MOI 25): 67.62%
MFI (dmPGE2 50 uM during transduction, GFP lentivirus MOI 5): 656,703.50
MFI (dmPGE2 50 uM during transduction, GFP lentivirus MOI 25): 977,806.75
% Positive (GFP) (dmPGE2 100 uM during transduction (24-48 hours of culture), GFP lentivirus MOI 5): 42.97%
% Positive (GFP) (dmPGE2 100 uM during transduction (24-48 hours of culture), GFP lentivirus MOI 25): 81.53%
MFI (dmPGE2 100 uM during transduction, GFP lentivirus MOI 5): 732,716.25
MFI (dmPGE2 100 uM during transduction, GFP lentivirus MOI 25): 1,513,504.00
